Test results from ChEMBL document CHEMBL1132605 (J Med Chem, 1999).
Values belong to the molecule of their own block, whether it stands above or below them.

How the values were obtained:
[1] = biological target: T1, Bifunctional dihydrofolate reductase-thymidylate synthase (Toxoplasma gondii, UniProt Q07422)
T1 sequence (Q07422 whole entry): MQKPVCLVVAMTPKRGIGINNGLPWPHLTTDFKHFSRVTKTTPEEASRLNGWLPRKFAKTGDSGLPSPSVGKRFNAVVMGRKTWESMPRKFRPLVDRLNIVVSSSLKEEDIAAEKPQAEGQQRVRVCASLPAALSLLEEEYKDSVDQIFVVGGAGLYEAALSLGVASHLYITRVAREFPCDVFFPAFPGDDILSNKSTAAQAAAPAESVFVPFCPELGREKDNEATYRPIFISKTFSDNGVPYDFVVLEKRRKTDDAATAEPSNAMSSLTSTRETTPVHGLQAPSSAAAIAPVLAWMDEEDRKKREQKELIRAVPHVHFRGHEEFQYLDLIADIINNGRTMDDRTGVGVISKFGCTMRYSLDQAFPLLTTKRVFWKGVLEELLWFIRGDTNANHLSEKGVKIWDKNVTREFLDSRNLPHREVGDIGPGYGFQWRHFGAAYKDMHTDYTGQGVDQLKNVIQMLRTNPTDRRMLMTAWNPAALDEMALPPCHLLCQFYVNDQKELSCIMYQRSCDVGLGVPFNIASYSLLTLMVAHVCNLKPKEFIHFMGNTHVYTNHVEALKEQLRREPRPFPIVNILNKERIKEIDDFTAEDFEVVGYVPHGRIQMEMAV
Description: The ability to inhibit Toxoplasma gondii Dihydrofolate reductase was tested

Dihydrofolate reductase [2] = biological target: T2, Dihydrofolate reductase (Rattus norvegicus, UniProt Q920D2)
T2 sequence (Q920D2 whole entry): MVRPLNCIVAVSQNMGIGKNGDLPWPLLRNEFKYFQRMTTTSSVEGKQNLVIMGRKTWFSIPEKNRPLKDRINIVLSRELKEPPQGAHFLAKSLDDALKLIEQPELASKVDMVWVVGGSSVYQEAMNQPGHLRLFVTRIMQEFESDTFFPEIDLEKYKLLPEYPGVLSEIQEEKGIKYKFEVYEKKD
Description: The ability to inhibit rat liver Dihydrofolate reductase was tested

Dihydrofolate reductase [3] = biological target: T3, Dihydrofolate reductase (Pneumocystis carinii, UniProt P16184)
T3 sequence (P16184 whole entry): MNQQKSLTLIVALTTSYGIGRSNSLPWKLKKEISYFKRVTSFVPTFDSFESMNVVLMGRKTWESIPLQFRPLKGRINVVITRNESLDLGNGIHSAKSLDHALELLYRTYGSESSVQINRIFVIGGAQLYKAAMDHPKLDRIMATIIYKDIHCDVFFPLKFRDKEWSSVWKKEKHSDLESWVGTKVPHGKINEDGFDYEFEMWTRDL
Description: The ability to inhibit Pneumocystis carinii Dihydrofolate reductase was tested

[4] = The ability to inhibit [3H]- uracil incorporation by Toxoplasma gondii in cultures of HEL cells was tested; type: functional, cell-based, Homo sapiens
COLO 205 = assay: Compound was tested for the growth inhibition of COLO 205 colon tumor cell line; type: functional, cell-based; conditions: Homo sapiens
T47D = assay: Compound was tested for the growth inhibition of T-47D breast tumor cell line; type: functional, cell-based; conditions: Homo sapiens
786-0 = assay: Compound was tested for the growth inhibition of 786-0 renal tumor cell line; type: functional, cell-based; conditions: Homo sapiens
A498 = assay: Compound was tested for the growth inhibition of A498 renal tumor cell line; type: functional, cell-based; conditions: Homo sapiens
UACC-257 = assay: Compound was tested for the growth inhibition of UACC-257 melanoma tumor cell line; type: functional, cell-based; conditions: Homo sapiens
MDA-N = assay: Compound was tested for the growth inhibition of MDA-N breast carcinoma cell line; type: functional, cell-based; conditions: Homo sapiens
ACHN = assay: Compound was tested for the growth inhibition of ACHN renal tumor cell line; type: functional, cell-based; conditions: Homo sapiens
BT-549 = assay: Compound was tested for the growth inhibition of BT-549 breast carcinoma cell line; type: functional, cell-based; conditions: Homo sapiens
[5] = Ratio of the inhibitory concentrations against [3H]-uracil incorporation into nuclear DNA and Toxoplasma gondii (Tg) DHFR; IC50 ([3H]uracil incorporation)/IC50 (Tg); type: functional
NCI-H226 = assay: Compound was tested for the growth inhibition of NCI-H226 lung tumor cell line; type: functional, cell-based; conditions: Homo sapiens
EKVX = assay: Compound was tested for the growth inhibition of EKVX lung tumor cell line; type: functional, cell-based; conditions: Homo sapiens
HCT-116 = assay: Compound was tested for the growth inhibition of HCT116 colon tumor cell line; type: functional, cell-based; conditions: Homo sapiens
A549 = assay: Compound was tested for the growth inhibition of A549 lung tumor cell line; type: functional, cell-based; conditions: Homo sapiens
KM12 = assay: Compound was tested for the growth inhibition of KM12 colon tumor cell line; type: functional, cell-based; conditions: Homo sapiens
LOX IMVI = assay: Compound was tested for the growth inhibition of LOX IMVI melanoma tumor cell line; type: functional, cell-based; conditions: Homo sapiens
PC-3 = assay: Compound was tested for the growth inhibition of PC3 prostate tumor cell line; type: functional, cell-based; conditions: Homo sapiens
SF-295 = assay: Compound was tested for the growth inhibition of SF-295 CNS tumor cell line; type: functional, cell-based; conditions: Homo sapiens
SN12C = assay: Compound was tested for the growth inhibition of SN12C renal tumor cell line; type: functional, cell-based; conditions: Homo sapiens
SF-268 = assay: Compound was tested for the growth inhibition of SF-268 CNS tumor cell line; type: functional, cell-based; conditions: Homo sapiens
SW-620 = assay: Compound was tested for the growth inhibition of SW-620 colon tumor cell line; type: functional, cell-based; conditions: Homo sapiens
IGROV-1 = assay: Compound was tested for the growth inhibition of IGROV1 ovarian tumor cell line; type: functional, cell-based; conditions: Homo sapiens
OVCAR-8 = assay: Compound was tested for the growth inhibition of OVCAR-8 ovarian tumor cell line; type: functional, cell-based; conditions: Homo sapiens
NCI-H460 = assay: Compound was tested for the growth inhibition of NCI-H460 lung tumor cell line; type: functional, cell-based; conditions: Homo sapiens
SF-539 = assay: Compound was tested for the growth inhibition of SF-539 CNS tumor cell line; type: functional, cell-based; conditions: Homo sapiens
OVCAR-3 = assay: Compound was tested for the growth inhibition of OVCAR-3 ovarian tumor cell line; type: functional, cell-based; conditions: Homo sapiens
SK-MEL-5 = assay: Compound was tested for the growth inhibition of SK-MEL-5 melanoma tumor cell line; type: functional, cell-based; conditions: Homo sapiens

Compound: COc1ccc(OC)c(CN2CCc3nc(N)nc(N)c3C2)c1
IC50 [1]: 0.3 µM | IC50 (Dihydrofolate reductase [2]): 1.4 µM | IC50 (Dihydrofolate reductase [3]): 3.3 µM

Compound: Nc1nc(N)c2c(n1)CCC(Cc1cccs1)C2 (stereo not given)
IC50 [1]: 0.062 µM | IC50 (Dihydrofolate reductase [2]): 0.08 µM | IC50 (Dihydrofolate reductase [3]): 0.21 µM

Compound: CCc1nc(N)nc(N)c1-c1ccc(Cl)cc1 [PYRIMETHAMINE]
IC50 [4]: 0.67 µM

Compound: Nc1nc(N)c2c(n1)CCC(c1ccccc1)C2 (stereo not given)
IC50 [1]: 1.3 µM | IC50 (Dihydrofolate reductase [2]): 1.9 µM | IC50 (Dihydrofolate reductase [3]): 2.2 µM

Compound: Nc1nc(N)c2c(n1)CCC(Cc1ccsc1)C2 (stereo not given)
IC50 [1]: 0.049 µM | IC50 (Dihydrofolate reductase [2]): 0.13 µM | IC50 (Dihydrofolate reductase [3]): 1.7 µM

Compound: COc1cc(CN2CCc3nc(N)nc(N)c3C2)cc(OC)c1OC
IC50 [1]: 0.2 µM | IC50 (Dihydrofolate reductase [2]): 2.2 µM | IC50 (Dihydrofolate reductase [3]): 6.9 µM

Compound: COc1cc(CC2CCc3nc(N)nc(N)c3C2)cc(OC)c1OC (stereo not given)
IC50 (COLO 205): 1.6 µM | IC50 (SK-MEL-5): 0.08 µM | IC50 (T47D): 22 µM | IC50 (786-0): 0.06 µM | IC50 (A498): 21 µM | IC50 (UACC-257): 27 µM | IC50 (ACHN): 0.27 µM | IC50 (SF-539): 1 µM | IC50 (BT-549): 11 µM | Ratio [5]: 8.8 | IC50 (EKVX): 0.71 µM | IC50 [1]: 0.024 µM | IC50 (HCT-116): 0.05 µM | IC50 (A549): 0.78 µM | IC50 (Dihydrofolate reductase [2]): 0.038 µM | IC50 (KM12): 1.3 µM | IC50 (LOX IMVI): 0.08 µM | IC50 [4]: 0.21 µM | IC50 (Dihydrofolate reductase [3]): 0.091 µM | IC50 (OVCAR-3): 9.8 µM | IC50 (PC-3): 0.19 µM | IC50 (SF-295): 0.25 µM | IC50 (SN12C): 36 µM | IC50 (SF-268): 0.19 µM | IC50 (IGROV-1): 0.19 µM | IC50 (NCI-H460): 0.06 µM

Compound: Nc1nc(N)c2c(n1)CCC(CC1CCCO1)C2 (stereo not given)
IC50 [1]: 0.04 µM | IC50 (Dihydrofolate reductase [2]): 0.27 µM | IC50 (Dihydrofolate reductase [3]): 0.88 µM

Compound: CC(C)(C)C1CCc2nc(N)nc(N)c2C1 (stereo not given)
IC50 [1]: 0.018 µM | IC50 (Dihydrofolate reductase [2]): 0.065 µM | IC50 (Dihydrofolate reductase [3]): 0.18 µM

Now from value to molecule, other results behind:

IC50 (COLO 205): 3.8 µM | IC50 (T47D): 19 µM | IC50 (786-0): 0.06 µM | IC50 (ACHN): 0.24 µM | IC50 (BT-549): 0.27 µM | IC50 (NCI-H226): 12 µM | IC50 (HCT-116): 0.04 µM | IC50 (A549): 0.06 µM | IC50 (Dihydrofolate reductase [2]): 0.063 µM | IC50 (Dihydrofolate reductase [3]): 0.1 µM | IC50 (PC-3): 0.072 µM | IC50 (SW-620): 0.99 µM | IC50 (OVCAR-8): 21 µM | IC50 (NCI-H460): 0.04 µM
Compound: COc1ccc(CC2CCc3nc(N)nc(N)c3C2)cc1OC (stereo not given)
IC50 (A498): 24 µM | IC50 (UACC-257): 15 µM | IC50 (MDA-N): 0.051 µM | Ratio [5]: 3.5 | IC50 (EKVX): 5.7 µM | IC50 [1]: 0.023 µM | IC50 (KM12): 1.3 µM | IC50 (LOX IMVI): 0.07 µM | IC50 [4]: 0.081 µM | IC50 (SF-295): 0.25 µM | IC50 (SN12C): 23 µM | IC50 (SF-268): 0.3 µM | IC50 (IGROV-1): 0.13 µM

IC50 (Dihydrofolate reductase [2]): 3 µM | IC50 (Dihydrofolate reductase [3]): 6.9 µM
Compound: CCC1CCc2nc(N)nc(N)c2C1 (stereo not given)
IC50 [1]: 1.1 µM

IC50 (COLO 205): 10 µM | IC50 (T47D): 20 µM | IC50 (786-0): 0.06 µM | IC50 (BT-549): 0.33 µM | IC50 (NCI-H226): 31 µM | IC50 (HCT-116): < 0.01 µM | IC50 (A549): < 0.01 µM | IC50 (Dihydrofolate reductase [2]): 0.034 µM | IC50 (Dihydrofolate reductase [3]): 0.057 µM | IC50 (OVCAR-3): 15 µM | IC50 (PC-3): 0.035 µM | IC50 (SW-620): 0.32 µM | IC50 (OVCAR-8): 21 µM | IC50 (NCI-H460): < 0.01 µM
Compound: COc1ccc(OC)c(CC2CCc3nc(N)nc(N)c3C2)c1 (stereo not given)
IC50 (A498): 10 µM | IC50 (UACC-257): 8.4 µM | IC50 (MDA-N): < 0.01 µM | IC50 (SF-539): 0.43 µM | IC50 (EKVX): 16 µM | IC50 [1]: 0.021 µM | IC50 (KM12): 2.7 µM | IC50 (LOX IMVI): 0.06 µM | IC50 (SN12C): 15 µM

IC50 (Dihydrofolate reductase [2]): 0.19 µM | IC50 (Dihydrofolate reductase [3]): 0.4 µM
Compound: Nc1nc(N)c2c(n1)CCC(Cc1cccc(C(F)(F)F)c1)C2 (stereo not given)
IC50 [1]: 0.14 µM

IC50 (Dihydrofolate reductase [2]): 0.12 µM | IC50 (Dihydrofolate reductase [3]): 0.45 µM
Compound: COc1ccccc1CC1CCc2nc(N)nc(N)c2C1 (stereo not given)
IC50 [1]: 0.014 µM

IC50 (Dihydrofolate reductase [2]): 0.17 µM | IC50 (Dihydrofolate reductase [3]): 0.58 µM
Compound: Nc1nc(N)c2c(n1)CCC(Cc1ccc(OC(F)(F)F)cc1)C2 (stereo not given)
IC50 [1]: 0.073 µM

IC50 (Dihydrofolate reductase [2]): 0.18 µM | IC50 (Dihydrofolate reductase [3]): 0.29 µM
Compound: Nc1nc(N)c2c(n1)CCC(Cc1ccccc1)C2 (stereo not given)
Ratio [5]: 7.8 | IC50 [1]: 0.032 µM | IC50 [4]: 0.25 µM

IC50 (Dihydrofolate reductase [2]): 0.11 µM | IC50 (Dihydrofolate reductase [3]): 0.25 µM
Compound: Cc1ccccc1CC1CCc2nc(N)nc(N)c2C1 (stereo not given)
IC50 [1]: 0.023 µM

IC50 (Dihydrofolate reductase [2]): 0.077 µM | IC50 (Dihydrofolate reductase [3]): 0.44 µM
Compound: COc1ccc(CC2CCc3nc(N)nc(N)c3C2)cc1 (stereo not given)
IC50 [1]: 0.05 µM

IC50 (Dihydrofolate reductase [2]): 7.3 µM | IC50 (Dihydrofolate reductase [3]): 15 µM
Compound: Nc1nc(N)c2c(n1)CCC(Cc1ccc(Cl)c(Cl)c1)C2 (stereo not given)
IC50 [1]: 2.6 µM

IC50 (Dihydrofolate reductase [2]): 0.079 µM | IC50 (Dihydrofolate reductase [3]): 0.1 µM
Compound: Nc1nc(N)c2c(n1)CCC(Cc1cccc(OC(F)(F)F)c1)C2 (stereo not given)
Ratio [5]: 9.3 | IC50 [1]: 0.014 µM | IC50 [4]: 0.13 µM

IC50 (Dihydrofolate reductase [2]): 0.11 µM | IC50 (Dihydrofolate reductase [3]): 0.27 µM
Compound: COc1cccc(CC2CCc3nc(N)nc(N)c3C2)c1 (stereo not given)
IC50 [1]: 0.021 µM

IC50 (Dihydrofolate reductase [2]): 0.11 µM | IC50 (Dihydrofolate reductase [3]): 0.34 µM
Compound: Cc1cccc(CC2CCc3nc(N)nc(N)c3C2)c1 (stereo not given)
IC50 [1]: 0.036 µM
